Results taken from patent US20240010684A1, “MASP INHIBITORY COMPOUNDS AND USES THEREOF” (BAYER AKTIENGESELLSCHAFT, priority 2020, published 2024).
Where a SMILES comes first, the peptide text is derived from it. Bridges are numbered along the chain shown (N, C = ends). [ ]: non-standard residue; d: D form. Oic = O=C(O)[C@@H]1C[C@@H]2CCCC[C@@H]2N1; tBuAla = CC(C)(C)C[C@H](N)C(=O)O; Pen = CC(C)(S)[C@H](N)C(=O)O; NMeC = CN[C@@H](CS)C(=O)O; Abu = CC[C@H](N)C(=O)O; Dap = NC[C@H](N)C(=O)O; Ahx = NCCCCCC(=O)O; Sar = CNCC(=O)O

How the values were obtained:
[1] = target: human MASP1 (Homo sapiens (Human), UniProt P48740); assay: Biochemical human MASP1 assay (FRET substrate); conditions: Average IC50; recombinant human MASP1; read-out: human MASP1 IC50
Text: A truncated cDNA sequence of human MASP1 encoding the fragment corresponding to the amino acids 297-699 with a C-terminal His Tag and N-terminal Ig-kappa secretion signal (SEQ ID No: 2) was subcloned into the mammalian expression vector pcDNA3.1 (Invitrogen).
The MASP1 or MASP2 expression vectors were transfected into the HEK293 (ATCC No. CRL-1573) cell line using Lipofectamine LTX® Reagent (Thermo-Fischer), as described by the manufacturer. The mature form of the recombinant human MASP1 and MASP2 proteases were secreted into the culture medium. The MASP1 and MASP2 proteins were purified from the conditioned media by affinity chromatography on Ni-NTA Superflow resin (Qiagen) as described by the manufacturer.
2.2 Biochemical Human MASP1 Assay
Recombinant human MASP1 enzyme produced in the HEK 293 cells was diluted in the reaction buffer (50 mM HEPES pH 8,0; 100 mM NaCl; 0,01% CHAPS; 0.5 mM Gluthathione) to the concentration of 20 nM and 25 μl was transferred into each single well of 384-well white microtiter plate (Greiner Bio One 781075). 1 μl of the inhibitor compound solution (dissolved in DMSO, at the corresponding concentration) or pure DMSO as a control was added to the same wells. The enzymatic reaction was initiated by addition of 25 μl of 20 μM solution of the FRET substrate ABZ-[…]-Lys (Dnp)-NH2; (ABZ-2-aminobenzoyl; DNP 2,4-dinitrophenyl; custom synthesis by Jerini Peptide Technologies, Berlin) in the reaction buffer. The microtiter plate was incubated for 60-120 min at the temperature of 32 C. The increase of fluorescence intensity was measured in appropriate fluorescence plate reader (e.g. TECAN Ultra) using excitation wavelength of 320 nm and emission wavelength of 420 nm. IC50 values were calculated from percentage of inhibition of human MASP1 activity as a function of test compound concentration.

[2] = target: human MASP2 (Homo sapiens (Human), UniProt O00187); assay: Biochemical human MASP2 assay (FRET substrate); conditions: Average IC50; recombinant human MASP2; read-out: human MASP2 IC50
Text: The MASP1 or MASP2 expression vectors were transfected into the HEK293 (ATCC No. CRL-1573) cell line using Lipofectamine LTX® Reagent (Thermo-Fischer), as described by the manufacturer. The mature form of the recombinant human MASP1 and M[…] were secreted into the culture medium. The MASP1 and M[…] were purified from the conditioned media by affinity chromatography on Ni-NTA Superflow resin (Qiagen) as described by the manufacturer. 2.3 Biochemical Human MASP2 Assay […] The enzymatic reaction was initiated by addition of 25 μl of 60 μM solution of the FRET substrate DABCYL-[…]; […] The microtiter plate was incubated for 60-120 min at the temperature of 32 C. The increase of fluorescence intensity was measured in appropriate fluorescence plate reader (e.g. TECAN Ultra) using excitation wavelength of 340 nm and emission wavelength of 490 nm. IC50 values were calculated from percentage of inhibition of human MASP2 activity as a function of test compound concentration.

Sequence of human MASP2 (O00187 other isoform, or with tags, fused parts or gaps): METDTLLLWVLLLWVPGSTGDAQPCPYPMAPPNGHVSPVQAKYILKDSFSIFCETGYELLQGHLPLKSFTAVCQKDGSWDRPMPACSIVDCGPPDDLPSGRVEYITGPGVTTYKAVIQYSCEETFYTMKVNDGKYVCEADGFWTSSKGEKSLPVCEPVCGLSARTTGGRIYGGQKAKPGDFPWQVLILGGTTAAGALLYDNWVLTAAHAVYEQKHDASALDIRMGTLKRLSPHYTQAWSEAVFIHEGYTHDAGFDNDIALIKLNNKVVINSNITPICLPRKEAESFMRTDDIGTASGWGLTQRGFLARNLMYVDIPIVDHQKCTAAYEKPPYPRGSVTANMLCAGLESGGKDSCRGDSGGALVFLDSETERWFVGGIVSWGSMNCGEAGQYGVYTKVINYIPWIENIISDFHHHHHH
Sequence of human MASP1 (P48740 other isoform, or with tags, fused parts or gaps): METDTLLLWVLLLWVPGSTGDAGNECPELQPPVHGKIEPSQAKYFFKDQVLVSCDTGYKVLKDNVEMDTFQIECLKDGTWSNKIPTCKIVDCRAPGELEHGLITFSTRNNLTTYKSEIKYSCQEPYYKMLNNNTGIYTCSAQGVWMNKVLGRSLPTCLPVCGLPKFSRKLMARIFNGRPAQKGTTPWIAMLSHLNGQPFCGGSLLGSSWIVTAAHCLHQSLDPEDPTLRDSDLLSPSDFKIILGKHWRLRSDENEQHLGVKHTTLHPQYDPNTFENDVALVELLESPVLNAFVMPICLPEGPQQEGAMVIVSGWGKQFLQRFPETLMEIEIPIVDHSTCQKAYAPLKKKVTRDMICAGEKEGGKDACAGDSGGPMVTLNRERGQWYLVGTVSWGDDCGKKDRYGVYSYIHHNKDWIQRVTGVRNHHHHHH

IC50 [1] | IC50 [2] | SMILES
0.0098 µM | 0.11 µM | CC[C@H](C)[C@@H]1NC(=O)CNC(=O)[C@@H](N)CCC(=O)NCCCC[C@@H](C(N)=O)NC(=O)[C@@H]2CCCN2C(=O)[C@H]([C@@H](C)CC)NC(=O)[C@H]2NC(=O)[C@H]([C@@H](C)CC)NC(=O)[C@@H]3C[C@@H]4CCCC[C@@H]4N3C(=O)[C@@H]3CCCN3C(=O)[C@H](CC(C)C)NC(=O)[C@H](CO)NC(=O)[C@H](CCCNC(=N)N)NC(=O)[C@H](CO)NC(=O)[C@H](CSSC2(C)C)NC1=O [Example 90] (H-EGICSRSLP[Oic]I[Pen]IPK-NH2; lactam 1-15; disulfide 4-12)
0.06 µM | 0.61 µM | CC[C@H](C)[C@@H]1NC(=O)[C@H](C)NC(=O)CCCCCNC(=O)[C@@H]2CCCN2C(=O)[C@H]([C@@H](C)CC)NC(=O)[C@@H]2CSSC[C@H](NC1=O)C(=O)N[C@@H](CO)C(=O)N[C@@H](CCCNC(=N)N)C(=O)N[C@@H](CO)C(=O)N[C@@H](CC(C)C)C(=O)N1CCC[C@H]1C(=O)N1[C@@H](C[C@@H]3CCCC[C@@H]31)C(=O)N[C@@H]([C@@H](C)CC)C(=O)N2 [Example 25] (cyclo(AICSRSLP[Oic]ICIP[Ahx]); disulfide 3-11)
0.0082 µM | 0.066 µM | CC[C@H](C)[C@@H]1NC(=O)CNC(=O)CNC(=O)[C@H](C)NC(=O)[C@@H](CC(=O)O)NC(=O)[C@@H]2CCCN2C(=O)[C@H]([C@@H](C)CC)NC(=O)[C@@H]2CSSC[C@H](NC1=O)C(=O)N[C@@H](CO)C(=O)N[C@@H](CCCNC(=N)N)C(=O)N[C@@H](CO)C(=O)N[C@@H](CC(C)(C)C)C(=O)N1CCC[C@H]1C(=O)N1CCC[C@H]1C(=O)N[C@@H]([C@@H](C)CC)C(=O)N2C [Example 47] (cyclo(AGGICSRS[tBuAla]PPI[NMeC]IP[dD]); disulfide 5-13)
0.01 µM | 0.07 µM | CC[C@H](C)[C@@H]1NC(=O)CNC(=O)CCCCCNC(=O)C[C@@H](C(N)=O)NC(=O)[C@@H]2CCCN2C(=O)[C@H]([C@@H](C)CC)NC(=O)[C@H]2NC(=O)[C@H]([C@@H](C)CC)NC(=O)[C@@H]3CCCN3C(=O)[C@@H]3CCCN3C(=O)[C@H](CC(C)(C)C)NC(=O)[C@H](CO)NC(=O)[C@H](CCCNC(=N)N)NC(=O)[C@H](CO)NC(=O)[C@H](CSSC2(C)C)NC1=O [Example 48] ([Ahx]GICSRS[tBuAla]PPI[Pen]IPD-NH2; disulfide 4-12; lactam N-15)
0.055 µM | 0.11 µM | CC[C@H](C)[C@@H]1NC(=O)CNC(=O)CNC(=O)[C@@H](N)CNC(=O)[C@H](CC(=O)O)NC(=O)[C@@H]2CCCN2C(=O)[C@H]([C@@H](C)CC)NC(=O)[C@@H]2CSSC[C@H](NC1=O)C(=O)N[C@@H](CO)C(=O)N[C@@H](CCCNC(=N)N)C(=O)N[C@@H](CO)C(=O)N[C@@H](CC(C)C)C(=O)N1CCC[C@H]1C(=O)N1CCC[C@H]1C(=O)N[C@@H]([C@@H](C)CC)C(=O)N2 [Example 20] (H-[Dap]GGICSRSLPPICIPD; lactam 1-C; disulfide 5-13)
0.028 µM | 0.062 µM | CC[C@@H]1NC(=O)CCCCCNC(=O)[C@H](CC(=O)O)NC(=O)[C@@H]2CCCN2C(=O)[C@H]([C@@H](C)CC)NC(=O)[C@@H]2CSSC[C@H](NC(=O)[C@H]([C@@H](C)CC)NC1=O)C(=O)N[C@@H](CO)C(=O)N[C@@H](CCCNC(=N)N)C(=O)N[C@@H](CO)C(=O)N[C@@H](CC(C)(C)C)C(=O)N1CCC[C@H]1C(=O)N1CCC[C@H]1C(=O)N[C@@H]([C@@H](C)CC)C(=O)N2C [Example 33] (cyclo([Abu]ICSRS[tBuAla]PPI[NMeC]IPD[Ahx]); disulfide 3-11)
0.011 µM | 0.21 µM | CC[C@H](C)[C@@H]1NC(=O)[C@H](C)NC(=O)CN(C)C(=O)CCCCCNC(=O)CC[C@@H](C(N)=O)NC(=O)[C@@H]2CCCN2C(=O)[C@H]([C@@H](C)CC)NC(=O)[C@H]2NC(=O)[C@H]([C@@H](C)CC)NC(=O)[C@@H]3C[C@@H]4CCCC[C@@H]4N3C(=O)[C@@H]3CCCN3C(=O)[C@H](CC(C)C)NC(=O)[C@H](CO)NC(=O)[C@H](CCCNC(=N)N)NC(=O)[C@H](CO)NC(=O)[C@H](CSSC2(C)C)NC1=O [Example 77] ([Ahx][Sar]AICSRSLP[Oic]I[Pen]IPE-NH2; disulfide 5-13; lactam N-16)
0.05 µM | 0.015 µM | CC[C@H](C)[C@@H]1NC(=O)CNC(=O)CNC(=O)[C@H](C)NC(=O)[C@H](CC(=O)O)NC(=O)[C@@H]2CCCN2C(=O)[C@H]([C@@H](C)CC)NC(=O)[C@@H]2CSSC[C@H](NC1=O)C(=O)N[C@@H](CO)C(=O)N[C@@H](CCCNC(=N)N)C(=O)N[C@@H](CO)C(=O)N[C@@H](CC(C)C)C(=O)N1CCC[C@H]1C(=O)N1CCC[C@H]1C(=O)N[C@@H]([C@@H](C)CC)C(=O)N2 [Example 18] (cyclo(AGGICSRSLPPICIPD); disulfide 5-13)
0.02 µM | 0.044 µM | CC[C@@H]1NC(=O)CCCCCNC(=O)[C@H](CC(=O)O)NC(=O)[C@@H]2CCCN2C(=O)[C@H]([C@@H](C)CC)NC(=O)[C@H]2NC(=O)[C@H]([C@@H](C)CC)NC(=O)[C@@H]3CCCN3C(=O)[C@@H]3CCCN3C(=O)[C@H](CC(C)(C)C)NC(=O)[C@H](CO)NC(=O)[C@H](CCCNC(=N)N)NC(=O)[C@H](CO)NC(=O)[C@H](CSSC2(C)C)NC(=O)[C@H]([C@@H](C)CC)NC1=O [Example 38] (cyclo([Abu]ICSRS[tBuAla]PPI[Pen]IPD[Ahx]); disulfide 3-11)
0.0071 µM | 0.09 µM | CC[C@H](C)[C@@H]1NC(=O)CNC(=O)CCCCCNC(=O)C[C@@H](C(N)=O)NC(=O)[C@@H]2CCCN2C(=O)[C@H]([C@@H](C)CC)NC(=O)[C@@H]2CSSC[C@H](NC1=O)C(=O)N[C@@H](CO)C(=O)N[C@@H](CCCNC(=N)N)C(=O)N[C@@H](CO)C(=O)N[C@@H](CC(C)(C)C)C(=O)N1CCC[C@H]1C(=O)N1CCC[C@H]1C(=O)N[C@@H]([C@@H](C)CC)C(=O)N2C [Example 40] ([Ahx]GICSRS[tBuAla]PPI[NMeC]IPD-NH2; disulfide 4-12; lactam N-15)
0.0091 µM | 0.0375 µM | CC[C@H](C)[C@@H]1NC(=O)[C@H](C)NC(=O)CCCCCNC(=O)[C@H](CC(=O)O)NC(=O)[C@@H]2CCCN2C(=O)[C@H]([C@@H](C)CC)NC(=O)[C@H]2NC(=O)[C@H]([C@@H](C)CC)NC(=O)[C@@H]3CCCN3C(=O)[C@@H]3CCCN3C(=O)[C@H](CC(C)(C)C)NC(=O)[C@H](CO)NC(=O)[C@H](CCCNC(=N)N)NC(=O)[C@H](CO)NC(=O)[C@H](CSSC2(C)C)NC1=O [Example 27] (cyclo(AICSRS[tBuAla]PPI[Pen]IPD[Ahx]); disulfide 3-11)
0.018 µM | 0.091 µM | CC[C@H](C)[C@@H]1NC(=O)CNC(=O)CCCCCNC(=O)CC[C@@H](C(N)=O)NC(=O)[C@@H]2CCCN2C(=O)[C@H]([C@@H](C)CC)NC(=O)[C@H]2NC(=O)[C@H]([C@@H](C)CC)NC(=O)[C@@H]3C[C@@H]4CCCC[C@@H]4N3C(=O)[C@@H]3CCCN3C(=O)[C@H](CC(C)C)NC(=O)[C@H](CO)NC(=O)[C@H](CCCNC(=N)N)NC(=O)[C@H](CO)NC(=O)[C@H](CSSC2(C)C)NC1=O [Example 83] ([Ahx]GICSRSLP[Oic]I[Pen]IPE-NH2; disulfide 4-12; lactam N-15)
